Earlier results on 1 compound are cited in US20230106284A1, “SYSTEM AND METHOD FOR GENERATING POTENTIAL DRUG COMPOSITIONS FOR DISEASE TARGET” (Innoplexus AG, priority 2020, published 2023).

The conditions of this data set: oral delivery.

`O=C(O)c1ccc(-n2nc(-c3ccccc3O)nc2-c2ccccc2O)cc1` [DFX, deferasirox]: the bioavailability result is “about 70%” and the volume of distribution is 14.37±2.69 litter.
